Type in all cases: biochemical
The target in assay [1] is T1, MMP-9 (Homo sapiens, UniProt P14780).
T1 construct: from tissue; host or cells: human polymorphonuclear leukocytes (PMN) from whole blood (New York Blood Center), PMA-stimulated supernatant
The assay can be described thus: Automated MMP Profiling Assay, MMP-9 fluorogenic. To be noted: for IC50: 96-well automated, P218. Here is the method: Briefly, polymorphonuclear leukocytes (PMN) preparations were isolated as described above from 3 or more units of freshly drawn whole blood obtained from the New York Blood Center (New York, N.Y.). Cells were resuspended in phosphate buffered saline (PBS) containing 100 ng/ml phorbol myristate acetate (PMA) in the presence of 50 mM diisopropylfluorophospate (DFP), 1 μg/ml leupeptin and aprotinin, and 1 mg/ml catalase for 1 hr at 37° C. Supernatants were collected by centrifugation (300×g) and the samples were frozen at -70° C. All chromatographic methods were performed at 4° C. Thawed samples were concentrated 5-fold using an Amicon chamber equipped with a YM-10 membrane. The concentrate was pressure dialyzed against 0.02M Tris-HCl, 0.1M NaCl, 1 mM CaCl2, 1 μM ZnCl2, 0.001% Brij-35, 0.02% sodium azide (NaN3), pH 7.5 and applied to DEAE ion exchange chromatography resin which was previously equilibrated with the same buffer at a flow rate of 0.4 ml/min. The column was extensively washed with the same buffer and gelatinase was eluted as 4 ml fractions from the column with 0.02M Tris-HCl, 0.5M NaCl, 1 mM CaCl2, 1 μM ZnCl2, 0.001% Brij-35, 0.02% NaN3, pH 7.5. Gelatinase containing fractions were observed by gelatin zymography (see below), loaded onto a gelatin agarose affinity resin and washed with the same buffer. Gelatinase activity was eluted at a flow rate of 1 ml/min from the column as 1 ml fractions with 0.02M Tris-HCl, 1M NaCl, 1 mM CaCl2, 1 μM ZnCl2, 0.001% Brij-35, 0.02% NaN3, pH 7.5 containing 10% dimethyl sulfoxide (DMSO). The fractions containing gelatinase activity were pooled and dialyzed against 0.005M Tris-HCl, 5 mM NaCl, 0.5 mM CaCl2, 0.1 μM ZnCl2, 0.001% Brij-35, pH 7.4. The protein content associated with material was determined with a micro-BCA assay (Pierce, Rockford, Ill.), lyophilized and reconstituted to a desired working concentration (100 μg/ml).
This assay was run with a protocol analogous to that reported for MMP-3 inhibition using the synthetic peptide P218 and each of the three enzymes and measuring quenched fluorescence. This assay with each invention compound was run with the three enzymes MMP-3, MMP-9 and MMP-2 in parallel as adapted for a 96-well microtitre plate using a Hamilton A® workstation.

Assay [2] addresses T2, MMP-2 (Homo sapiens, UniProt P08253).
T2 sequence (P08253 110-660): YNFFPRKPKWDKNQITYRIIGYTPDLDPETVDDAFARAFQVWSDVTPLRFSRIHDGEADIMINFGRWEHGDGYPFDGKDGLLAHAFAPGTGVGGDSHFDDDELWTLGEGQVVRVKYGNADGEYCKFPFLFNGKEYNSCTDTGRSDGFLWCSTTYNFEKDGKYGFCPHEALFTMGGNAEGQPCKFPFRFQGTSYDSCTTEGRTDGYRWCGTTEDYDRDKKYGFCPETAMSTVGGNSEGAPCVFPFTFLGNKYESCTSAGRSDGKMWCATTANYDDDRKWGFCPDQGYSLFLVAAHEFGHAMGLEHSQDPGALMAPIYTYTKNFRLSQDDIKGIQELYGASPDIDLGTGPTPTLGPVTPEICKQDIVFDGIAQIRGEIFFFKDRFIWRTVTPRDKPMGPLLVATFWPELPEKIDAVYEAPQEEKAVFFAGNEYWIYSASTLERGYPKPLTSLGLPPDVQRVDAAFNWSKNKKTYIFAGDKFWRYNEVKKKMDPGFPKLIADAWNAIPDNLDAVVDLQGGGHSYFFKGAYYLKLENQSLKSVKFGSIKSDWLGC
Description: Automated MMP Profiling Assay, MMP-2 fluorogenic. The settings on record: 96-well automated, P218; read-out: MMP-2 Fluorogenic IC50 (profiling).

For assay [3], the target named is T3, MMP-3 (Homo sapiens, UniProt P08254).
T3 construct: Truncated Prostromelysin-257 was expressed in a soluble form in E.coli; made in house; host or cells: E. coli
The assay can be described thus: Automated MMP Profiling Assay, MMP-3 fluorogenic. To be noted: for IC50: 96-well automated, P218. An excerpt: This assay with each invention compound was run with the three enzymes MMP-3, MMP-9 and MMP-2 in parallel as adapted for a 96-well microtitre plate using a Hamilton A® workstation.

The term inhibition denotes the percentage by which the read-out fell short of the control. A high value points to a strong effect. By IC50 is commonly meant the midpoint of a concentration-inhibition curve.

T1 sequence (P14780 107-707 limits assumed): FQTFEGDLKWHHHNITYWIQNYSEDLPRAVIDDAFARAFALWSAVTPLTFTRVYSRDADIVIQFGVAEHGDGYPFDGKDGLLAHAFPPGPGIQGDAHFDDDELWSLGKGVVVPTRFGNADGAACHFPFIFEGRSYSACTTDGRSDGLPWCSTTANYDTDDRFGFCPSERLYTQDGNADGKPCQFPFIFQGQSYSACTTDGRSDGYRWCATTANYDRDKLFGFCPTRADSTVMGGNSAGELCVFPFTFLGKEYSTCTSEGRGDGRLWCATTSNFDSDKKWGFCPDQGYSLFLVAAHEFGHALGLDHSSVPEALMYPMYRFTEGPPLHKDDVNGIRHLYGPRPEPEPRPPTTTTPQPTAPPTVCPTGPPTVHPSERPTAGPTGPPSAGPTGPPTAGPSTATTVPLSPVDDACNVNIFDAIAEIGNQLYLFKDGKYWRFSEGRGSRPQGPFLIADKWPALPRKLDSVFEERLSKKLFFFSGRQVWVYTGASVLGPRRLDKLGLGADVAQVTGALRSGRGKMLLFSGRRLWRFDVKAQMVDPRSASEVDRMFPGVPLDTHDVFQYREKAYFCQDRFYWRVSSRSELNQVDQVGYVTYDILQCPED
T3 sequence (P08254 100-274 limits assumed): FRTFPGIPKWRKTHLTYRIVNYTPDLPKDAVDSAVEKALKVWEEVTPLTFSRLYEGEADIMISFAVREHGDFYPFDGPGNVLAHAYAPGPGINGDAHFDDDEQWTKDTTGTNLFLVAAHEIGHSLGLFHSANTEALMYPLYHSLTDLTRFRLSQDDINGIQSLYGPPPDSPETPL

In assay [1], `CC(C)(C)OC(=O)Nc1ccc(-c2ccc(C(=O)CC(CCc3ccccc3)C(=O)O)cc2)cc1` (stereo not drawn) [Example 138, [1,1'-Biphenyl]-4-butanoic acid, 4'-[[(1,1-dimethylethoxy)carbonyl]amino]-γ-oxo-α-(2-phenylethyl)-] showed an inhibition at 5 µM of 0%. For the same compound, the IC50 turned out to be 665 nM in assay [2] and 905 nM in assay [3].
With `O=C(O)[C@H]1[C@H](CN2C(=O)c3cc4ccccc4cc3C2=O)CC[C@@H]1C(=O)c1ccc(-c2ccc(Cl)cc2)cc1` (relative stereo) [Example 387, Cyclopentanecarboxylic acid, 2-[(4'-chloro[1,1'-biphenyl]-4-yl)carbonyl]-5-[(1,3-dihydro-1,3-dioxo-2H-benz[.function.]isoindol-2-yl)methyl]-, (1α,2β,5β)-], the IC50 in assay [1] amounted to 2 nM; in assay [2], 4.9 nM; in assay [3] it was 9.4 nM.
Regarding `O=C(OC[C@@H]1CC[C@H](C(=O)c2ccc(-c3ccc(Cl)cc3)cc2)[C@H]1C(=O)O)c1ccccc1` (relative stereo) [Example 367], the results for the IC50 in assay [1], in assay [2] and in assay [3] were 38 nM, 37 nM and 44 nM, respectively.
Consider `O=C(C[C@H](CS(=O)(=O)c1ccccc1)C(=O)O)c1ccc(-c2ccc(Cl)cc2)cc1` [Example 314, [1,1'-Biphenyl]-4-butanoic acid, 4'-chloro-γ-oxo-α-[(phenylsulfonyl)methyl]-, (S)-], for which the IC50 is 555 nM in assay [1], 13 nM in assay [2] and 399 nM in assay [3].
With `CCN(CC)C(=O)c1cccc(SCC(CC(=O)c2ccc(-c3ccc(Cl)cc3)cc2)C(=O)O)c1` (stereo not drawn) [Example 435, [1,1'-Biphenyl]-4-butanoic acid, 4'-chloro-α-[[[3-[(diethylamino)carbonyl]phenyl]thio]methyl]-γ-oxo-], the half-maximal inhibitory concentration (IC50) amounted to 107 nM in assay [1], 8.1 nM in assay [2] and 39 nM in assay [3].
On to `O=C(O)[C@H]1[C@H](CSc2cccs2)CC[C@@H]1C(=O)c1ccc(-c2ccc(Cl)cc2)cc1` (relative stereo) [Example 369, Cyclopentanecarboxylic acid, 2-[(4'-chloro[1,1'-biphenyl]-4-yl)carbonyl]-5-[(2-thienylthio)methyl]-, (1α,2β,5β)-], for which the values for the half-inhibitory concentration (IC50) in assay [1], in assay [2] and in assay [3] were 139 nM, 37 nM and 54 nM, respectively.
Regarding `O=C(O)[C@H]1[C@H](CSCc2ccccc2)CC[C@@H]1C(=O)c1ccc(-c2ccc(Cl)cc2)cc1` (relative stereo) [Example 372, Cyclopentanecarboxylic acid, 2-[(4'-chloro[1,1'-biphenyl]-4-yl)carbonyl]-5-[[(phenylmethyl)thio]methyl]-, (1α,2β,5β)-], the values for the IC50 in assay [1], in assay [2] and in assay [3] were 65 nM, 22 nM and 39 nM, respectively.
Turning to `O=C(CC(CCCc1ccccc1)C(=O)O)c1ccc(-c2ccc(OCc3ccccc3)cc2)cc1` (stereo not drawn) [Example 99, 4-[4-(4-benzyloxyphenyl)phenyl]-4-oxo-2-(3-phenylpropyl)butanoic acid], the concentration for half-maximal inhibition (IC50) came to 835 nM in assay [1], 26 nM in assay [2] and 36 nM in assay [3].
Take `O=C(CC(CCc1ccccc1)C(=O)O)c1ccc(-c2ccc(OCc3ccccc3)cc2)cc1` (stereo not drawn) [Example 161, [1,1'-Biphenyl]-4-butanoic acid, γ-oxo-α-(2-phenylethyl)-4'-(phenylmethoxy)-]: the half-inhibitory concentration (IC50) in assay [1] was found to be 1560 nM; in assay [2], 38 nM; in assay [3] it was 46 nM.
Regarding `CC(=O)NC(CC(=O)c1ccc(-c2ccc(Cl)cc2)cc1)C(=O)O` (stereo not drawn) [Example 430, [1,1'-Biphenyl]-4-butanoic acid, α-(acetylamino)-4'-chloro-γ-oxo-], the inhibition at 5 µM is 37% in assay [1] and 28% in assay [3]. For the same compound, in assay [2], the IC50 was 419 nM.
On to `O=C(CC(CSc1ccccc1)C(=O)O)c1ccc(-c2ccc(O)cc2)cc1` (stereo not drawn) [Example 444, [1,1'-Biphenyl]-4-butanoic acid, 4'-hydroxy-γ-oxo-α-[(phenylthio)methyl]-], for which the IC50 in assay [1] is under 5000 nM; in assay [2] it was 43 nM; in assay [3], under 5000 nM.
For `COC/C=C/c1ccc(-c2ccc(C(=O)CC(CCCc3ccccc3)C(=O)O)cc2)cc1` (stereo not drawn) [Example 353, [1,1'-Biphenyl]-4-butanoic acid, 4'-(3-methoxy-1-propenyl)-γ-oxo-α-(3-phenylpropyl)-, (E)-], the IC50 came to 274 nM in assay [1], 20 nM in assay [2] and 84 nM in assay [3].
The matching figures for `CC(C)CCOc1ccc(-c2ccc(C(=O)CC(CCCc3ccccc3)C(=O)O)cc2)cc1` (stereo not drawn) [Example 96, [1,1'-Biphenyl]-4-butanoic acid, 4'-(3-methylbutoxy)-γ-oxo-α-(3-phenylpropyl)-]: over 1250 nM, 72 nM and 232 nM.
Regarding `O=C(CC(CCN1C(=O)c2cc3c(cc2C1=O)OCO3)C(=O)O)c1ccc(-c2ccc(Cl)cc2)cc1` (stereo not drawn) [Example 419, 6H-1,3-Dioxolo[4,5-.function.]isoindole-6-butanoic acid, α-[2-(4'-chloro[1,1'-biphenyl]-4-yl)-2-oxoethyl]-5,7-dihydro-5,7-dioxo-], the half-maximal inhibitory concentration (IC50) is 0.85 nM in assay [1], 31 nM in assay [2] and 6.7 nM in assay [3].
Regarding `O=C(CC(CCN1C(=O)c2ccncc2C1=O)C(=O)O)c1ccc(-c2ccc(Cl)cc2)cc1` (stereo not drawn) [Example 417, 2H-Pyrrolo[3,4-c]pyridine-2-butanoic acid, α-[2-(4'-chloro[1,1'-biphenyl]-4-yl)-2-oxoethyl]-1,3-dihydro-1,3-dioxo-], the results for the IC50 in assay [1], in assay [2] and in assay [3] were 12 nM, 3.7 nM and 32 nM, respectively.
In the case of `CCCCC(=O)Nc1ccc(-c2ccc(C(=O)CC(CCc3ccccc3)C(=O)O)cc2)cc1` (stereo not drawn) [Example 140, [1,1'-Biphenyl]-4-butanoic acid, γ-oxo-4'-[(1-oxopentyl)amino]-α-(2-phenylethyl)-], the 50% inhibitory concentration (IC50) in assay [1] was over 1250 nM; in assay [2], 242 nM; in assay [3] it was 1030 nM.
With `O=C(O)[C@H]1[C@H](COCc2ccccc2)CC[C@@H]1C(=O)c1ccc(-c2ccc(Cl)cc2)cc1` (relative stereo) [Example 365, Cyclopentanecarboxylic acid, 2-[(4'-chloro[1,1'-biphenyl]-4-yl)carbonyl]-5-[(phenylmethoxy)methyl]-, (1α,2β,5β)-], the concentration for half-maximal inhibition (IC50) in assay [1] is 58 nM; in assay [2] it was 13 nM; in assay [3], 27 nM.
`O=C(CC(CCCc1ccccc1)C(=O)O)c1ccc(-c2ccc(/C=C\c3ccccc3)cc2)cc1` (stereo not drawn) [Example 358, [1,1'-Biphenyl]-4-butanoic acid, 4'-γ-oxo-4'-(2-phenylethenyl)-α-(3-phenylpropyl)-, (Z)-]: the inhibition at 5 µM in assay [1] was 4%; in assay [3] it was 39%. In assay [2], the IC50 came to 124 nM.
As to `CCCCCOc1ccc(-c2ccc(C(=O)[C@@H]3CC[C@H](Cc4ccccc4)[C@H]3C(=O)O)cc2)cc1` [Example 325, Cyclopentanecarboxylic acid, 2-[[4'-(pentyloxy)[1,1'-biphenyl]-4-yl]carbonyl]-5-(phenylmethyl)-, [1R-(1α,2β,5β)]-], the inhibition at 5 µM in assay [1] is 0%; in assay [3], 10%. For the same compound, the IC50 in assay [2] turned out to be 4400 nM.
